What all share (format): biochemical
Holding throughout (details): ATP 0.3 μM

Assay [1] deals with T1, ALKL1196M (GST-His-tag) (Homo sapiens, UniProt Q9UM73, L1196M).
T1 construct: either as full-length or enzymatically active fragments; purchased ProQinase GmbH (Freiburg, Germany)
Briefly: Radiometric protein kinase assay (33PanQuinase Activity Assay), ALK L1196M. Here is the method:
(§1) A proprietary radiometric protein kinase assay (33PanQuinase® Activity Assay) developed by ProQuinase GmbH (Freiburg, Germany) was used for measuring the kinase activity of selected protein kinases. All assays were performed in FlashPlates™ wells 96 Perkin Elmer (Boston, Mass., USA) in a reaction volume of 50 μl. The reaction mixture was obtained in 4 steps in the following order: • 1. 10 μl of a solution of non-radioactive ATP in water; • 2. 25 μl of assay buffer/[γ-^33P]-ATP mixture • 3. 5 μl of test sample in 10% DMSO • 4. 10 μl of enzyme/substrate mixture
(§2) All protein kinases provided by ProQinase were expressed in Sf9 insect cells or in E. coli as recombinant GST-fusion proteins or His-tagged proteins, either as full-length or enzymatically active fragments. […] Kinases from external vendors (CAR=Carna Biosciences Inc.; INV=Life Technologies (Invitrogen Corporation); MIL=Merck-Millipore (Millipore Corporation), were expressed, purified and quality-controlled by virtue of the vendors readings.
(§3) A stock solution of compound of formula (I) was diluted to 5×10-04M/100% DMSO. […] Incorporation of 33Pi (counting of “cpm”) was determined with a microplate scintillation counter (Microbeta, Wallac). […]
(§4) Based on each 10 corresponding residual activities, IC50 values were calculated using Prism 5.04 for Windows (Graphpad, San Diego, Calif.). […]

The target in assay [2] is T2, EPHB2 (Homo sapiens, UniProt P29323).
T2 construct: either as full-length or enzymatically active fragments; purchased ProQinase GmbH (Freiburg, Germany)
T2 sequence (P29323 19-1055): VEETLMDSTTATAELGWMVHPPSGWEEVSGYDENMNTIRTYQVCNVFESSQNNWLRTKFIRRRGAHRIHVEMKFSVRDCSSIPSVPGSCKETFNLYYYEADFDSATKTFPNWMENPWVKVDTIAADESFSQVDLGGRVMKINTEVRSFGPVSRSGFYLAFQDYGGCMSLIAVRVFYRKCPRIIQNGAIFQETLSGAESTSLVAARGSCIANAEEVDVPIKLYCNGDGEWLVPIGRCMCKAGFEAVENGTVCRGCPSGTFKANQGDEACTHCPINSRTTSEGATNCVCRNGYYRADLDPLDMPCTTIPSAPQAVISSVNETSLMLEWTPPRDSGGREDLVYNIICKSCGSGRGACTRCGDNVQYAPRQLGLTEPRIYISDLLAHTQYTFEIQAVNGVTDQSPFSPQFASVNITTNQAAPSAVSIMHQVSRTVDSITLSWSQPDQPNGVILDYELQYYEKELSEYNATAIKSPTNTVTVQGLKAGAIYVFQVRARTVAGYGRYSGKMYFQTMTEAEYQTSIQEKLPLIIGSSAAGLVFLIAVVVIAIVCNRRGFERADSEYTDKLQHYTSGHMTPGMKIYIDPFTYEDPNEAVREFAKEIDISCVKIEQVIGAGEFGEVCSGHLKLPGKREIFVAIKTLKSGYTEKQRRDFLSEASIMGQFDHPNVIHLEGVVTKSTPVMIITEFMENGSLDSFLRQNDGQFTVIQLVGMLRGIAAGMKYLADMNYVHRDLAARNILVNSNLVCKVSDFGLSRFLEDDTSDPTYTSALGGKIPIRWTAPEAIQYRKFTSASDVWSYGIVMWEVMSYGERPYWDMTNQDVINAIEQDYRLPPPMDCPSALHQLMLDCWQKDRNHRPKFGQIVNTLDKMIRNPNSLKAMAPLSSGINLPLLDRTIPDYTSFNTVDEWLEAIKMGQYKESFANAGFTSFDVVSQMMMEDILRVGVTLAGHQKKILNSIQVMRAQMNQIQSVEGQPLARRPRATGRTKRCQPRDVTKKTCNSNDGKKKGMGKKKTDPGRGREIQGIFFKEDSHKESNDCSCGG
Briefly: Radiometric protein kinase assay (33PanQuinase Activity Assay), EPHB2. Here is the method:
as §1, §2, §3, §4

In assay [3] the target is T3, RET M918T (Homo sapiens, UniProt P07949, M918T).
T3 construct: either as full-length or enzymatically active fragments; purchased ProQinase GmbH (Freiburg, Germany)
Description: Radiometric protein kinase assay (33PanQuinase Activity Assay), RET M918T. Here is the method:
as §1, §2, §3, §4

The target of assay [4] is T4, RET V804M (Homo sapiens, UniProt P07949, V804M).
T4 construct: either as full-length or enzymatically active fragments; purchased ProQinase GmbH (Freiburg, Germany)
Description: Radiometric protein kinase assay (33PanQuinase Activity Assay), RET V804M. Here is the method: as §1, §2, §3, §4

T1 sequence (Q9UM73 19-1620 L1196M): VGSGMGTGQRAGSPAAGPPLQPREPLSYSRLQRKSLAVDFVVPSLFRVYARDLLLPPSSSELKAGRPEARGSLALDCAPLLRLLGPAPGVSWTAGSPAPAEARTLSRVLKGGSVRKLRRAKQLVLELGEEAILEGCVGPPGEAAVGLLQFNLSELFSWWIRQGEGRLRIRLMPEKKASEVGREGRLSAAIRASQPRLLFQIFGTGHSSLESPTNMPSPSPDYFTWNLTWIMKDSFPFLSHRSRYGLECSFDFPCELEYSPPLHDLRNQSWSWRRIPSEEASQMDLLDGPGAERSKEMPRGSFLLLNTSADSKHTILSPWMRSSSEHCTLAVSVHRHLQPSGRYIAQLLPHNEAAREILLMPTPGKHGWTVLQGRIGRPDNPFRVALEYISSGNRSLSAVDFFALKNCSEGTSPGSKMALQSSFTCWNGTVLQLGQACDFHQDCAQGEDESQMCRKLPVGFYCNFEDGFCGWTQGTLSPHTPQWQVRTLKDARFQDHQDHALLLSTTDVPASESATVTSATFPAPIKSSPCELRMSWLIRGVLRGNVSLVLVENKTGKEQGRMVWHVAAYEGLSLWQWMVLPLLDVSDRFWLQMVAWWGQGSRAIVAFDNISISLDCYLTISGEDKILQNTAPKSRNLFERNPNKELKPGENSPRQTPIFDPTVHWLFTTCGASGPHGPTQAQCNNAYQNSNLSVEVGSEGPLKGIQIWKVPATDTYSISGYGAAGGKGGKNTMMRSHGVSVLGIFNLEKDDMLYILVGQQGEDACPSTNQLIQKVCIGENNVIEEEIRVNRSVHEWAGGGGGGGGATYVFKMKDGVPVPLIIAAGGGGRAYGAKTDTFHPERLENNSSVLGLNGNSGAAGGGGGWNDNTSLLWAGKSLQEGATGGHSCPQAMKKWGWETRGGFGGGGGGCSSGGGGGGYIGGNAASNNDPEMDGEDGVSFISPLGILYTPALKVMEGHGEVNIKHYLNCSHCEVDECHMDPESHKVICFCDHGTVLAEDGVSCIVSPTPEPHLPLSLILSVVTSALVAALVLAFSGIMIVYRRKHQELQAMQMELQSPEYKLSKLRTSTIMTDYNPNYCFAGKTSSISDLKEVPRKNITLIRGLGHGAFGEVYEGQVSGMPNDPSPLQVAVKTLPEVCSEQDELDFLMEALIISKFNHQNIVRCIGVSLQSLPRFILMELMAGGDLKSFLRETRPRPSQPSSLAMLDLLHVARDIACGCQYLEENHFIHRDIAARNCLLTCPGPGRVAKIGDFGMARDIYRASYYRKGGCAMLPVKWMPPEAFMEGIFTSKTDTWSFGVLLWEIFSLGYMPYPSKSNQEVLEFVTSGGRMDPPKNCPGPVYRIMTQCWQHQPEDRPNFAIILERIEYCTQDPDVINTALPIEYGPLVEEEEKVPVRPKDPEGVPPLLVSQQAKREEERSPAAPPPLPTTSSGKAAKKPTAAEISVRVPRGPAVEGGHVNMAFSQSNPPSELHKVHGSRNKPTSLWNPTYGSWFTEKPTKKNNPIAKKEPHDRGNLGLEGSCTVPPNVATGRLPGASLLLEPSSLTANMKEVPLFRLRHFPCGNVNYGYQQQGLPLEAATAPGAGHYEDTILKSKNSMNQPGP
T4 sequence (P07949 29-1114 V804M): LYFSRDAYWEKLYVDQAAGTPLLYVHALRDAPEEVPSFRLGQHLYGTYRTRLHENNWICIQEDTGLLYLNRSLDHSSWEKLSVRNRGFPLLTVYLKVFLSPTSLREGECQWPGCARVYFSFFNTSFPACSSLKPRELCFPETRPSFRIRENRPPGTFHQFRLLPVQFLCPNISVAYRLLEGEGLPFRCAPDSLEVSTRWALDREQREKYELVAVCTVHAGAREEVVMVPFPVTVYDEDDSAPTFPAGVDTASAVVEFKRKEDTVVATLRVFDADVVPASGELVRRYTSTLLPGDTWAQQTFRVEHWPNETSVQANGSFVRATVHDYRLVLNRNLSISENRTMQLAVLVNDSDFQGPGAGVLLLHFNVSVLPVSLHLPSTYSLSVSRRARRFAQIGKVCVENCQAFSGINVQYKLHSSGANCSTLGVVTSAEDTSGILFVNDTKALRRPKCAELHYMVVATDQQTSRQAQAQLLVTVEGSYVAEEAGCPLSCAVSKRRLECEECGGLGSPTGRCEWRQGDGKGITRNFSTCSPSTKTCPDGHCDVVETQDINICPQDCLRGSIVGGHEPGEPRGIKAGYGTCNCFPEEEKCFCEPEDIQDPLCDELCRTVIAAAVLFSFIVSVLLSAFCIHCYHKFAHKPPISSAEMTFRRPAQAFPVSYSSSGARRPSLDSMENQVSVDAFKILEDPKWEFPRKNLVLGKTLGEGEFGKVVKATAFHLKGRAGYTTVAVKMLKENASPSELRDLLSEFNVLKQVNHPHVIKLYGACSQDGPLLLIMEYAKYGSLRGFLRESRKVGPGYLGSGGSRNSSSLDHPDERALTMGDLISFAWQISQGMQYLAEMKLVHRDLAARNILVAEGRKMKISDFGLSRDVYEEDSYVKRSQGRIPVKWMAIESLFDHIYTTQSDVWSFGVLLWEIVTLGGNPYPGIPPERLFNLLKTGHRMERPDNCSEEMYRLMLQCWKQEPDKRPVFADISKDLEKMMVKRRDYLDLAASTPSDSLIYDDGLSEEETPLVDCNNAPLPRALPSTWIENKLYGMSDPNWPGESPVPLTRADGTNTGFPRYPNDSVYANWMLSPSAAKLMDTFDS
T3 sequence (P07949 29-1114 M918T): as the sequence (P07949 29-1114 V804M) above, with M776V, M890T counted along it

Broadly, the IC50 is the concentration that gives 50% inhibition. Consider `CN1CCN(c2ccc(C(=O)Nc3n[nH]c4cc(-c5ccc(O)cc5)c(Cc5cc(F)cc(F)c5)cc34)c(NC3CCOCC3)c2)CC1` [Example 3, N-[5-[(3,5-difluorophenyl)methyl]-6-(4-hydroxyphenyl)-1H-indazol-3-yl]-4-(4-methylpiperazin-1-yl)-2-(tetrahydropyran-4-ylamino)benzamide], for which the IC50 turned out to be 45 nM in assay [1], 90 nM in assay [2], 120 nM in assay [3] and 85 nM in assay [4].

The values are drawn from patent publication US10336707B2, “Heterocyclic derivatives modulating activity of certain protein kinases” (EUDENDRON S.R.L., priority 2014, dated 2019).
